Measured values from paper PMC5638327, “Comparison of bioavailability and antiplatelet action of ticagrelor in patients with ST-elevation myocardial infarction and non-ST-elevation myocardial infarction: A prospective, observational, single-centre study” (PLoS ONE, 2017).

System: platelet reactivity
Experiment: Platelet reactivity by the VASP assay after ticagrelor loading dose
Assay type: in vivo, human (patients with myocardial infarction)
Settings: median [interquartile range]; for time to achieve platelet inhibition below the cut-off value for HPR (VASP): HPR = platelet reactivity index >50%
Description: Consecutive STEMI and NSTEMI patients admitted to the study site (Cardiology Department, Dr. A. Jurasz University Hospital, Bydgoszcz, Poland) were screened for eligibility. After admission to the study centre, confirmation of the initial diagnosis of STEMI or NSTEMI, and provision of a written informed consent to participate in the trial, all study participants received an oral 300 mg LD of plain aspirin (Polpharma SA, Starogard Gdański, Poland) and 180 mg LD ticagrelor in integral tablets with 250 mL tap water. Subsequently, within 15 minutes of ticagrelor LD, all patients underwent coronary angiography followed by PCI as required. During the periprocedural period, all study participants received unfractionated heparin in body weight adjusted dose according to the European Society of Cardiology (ESC) recommendations. Plasma concentrations of ticagrelor and its active metabolite, as well as their antiplatelet effect, were evaluated according to the sampling schedule employed at our centre in previous PK/PD study (pre-treatment, 0.5 h, 1 h, 2 h, 3 h, 4 h, 6 h and 12 h post ticagrelor LD).
Blood samples for PK/PD evaluation were obtained from an 18-gauge cannula inserted into one of the forearm veins. The first 5 mL blood was discarded to avoid spontaneous platelet activation. In each patient specimens were collected at the eight pre-defined time. Detailed description of blood sample processing has been published in the study protocol (S1 File).
Platelet reactivity was assessed using VASP and Multiplate. The VASP assay (Biocytex, Inc., Marseille, France) was used in all study participants, while Multiplate (Roche Diagnostics International Ltd., Rotkreuz, Switzerland) was used in all except in those treated with glycoprotein (GP) IIb/IIIa receptor inhibitors. Pharmacodynamic evaluation was performed according to the manufacturers' instructions. HPR was defined as platelet reactivity index >50% for the VASP assay and AUC >46 units (U) for Multiplate. […]
Table 1 Inclusion and exclusion criteria of the PINPOINT study
Inclusion criteria Exclusion criteria
▸ Provision of informed consent prior to any ▸ Treatment with ticlopidine, clopidogrel, prasugrel or ticagrelor within study-specific procedure 14 days before the study enrolment
▸ Diagnosis of STEMI or NSTEMI ▸ Hypersensitivity to ticagrelor
▸ Men or non-pregnant women ▸ Current treatment with oral anticoagulant or chronic therapy with low-molecular-weight heparin
▸ Provision of informed consent for angiography ▸ Active bleeding […]
▸ History of intracranial haemorrhage
▸ Fibrinolytic treatment during the index event
▸ Recent gastrointestinal bleeding (within 30 days)
▸ History of coagulation disorders
▸ History of moderate or severe hepatic impairment
▸ History of major surgery or severe trauma (within 3 months)
▸ Second or third degree atrioventricular block during screening for […]
▸ Patient requiring dialysis
▸ Manifest infection or inflammatory state
▸ Killip class III or IV during screening for eligibility
▸ Current therapy with strong CYP3A inhibitors or strong CYP3A […]
NSTEMI, non-ST-elevation myocardial infarction; PCI, percutaneous coronary intervention; STEMI, ST-elevation myocardial infarction. […]
Assessment of pharmacodynamics ticagrelor, β-blockers, statins and ACE inhibitors or angio-Platelet VASP assay (Biocytex, Marseille, France) will be tensin II receptor blockers, if not contraindicated. applied to all study participants at all predeﬁned time Morphine will be used at the discretion of the ambulance points. MEA (Roche Diagnostics International, Rotkreuz, staff and the attending physician. The type of implanted Switzerland) will be used at all predeﬁned time points stent and choice of the access site for coronary invasive ( ﬁgure 1) for all study participants with the exception of procedure (radial or femoral ) will be at the discretion of those treated with glycoprotein IIb/IIIa (GP IIb/IIIa) the operator. During the periprocedural period, all study […]

## CCCSc1nc(N[C@@H]2C[C@H]2c2ccc(F)c(F)c2)c2nnn([C@@H]3C[C@H](OCCO)[C@@H](O)[C@H]3O)c2n1 [ticagrelor]
NSTEMI, 0.5 h after 180 mg ticagrelor LD
  Platelet reactivity (VASP): 57.0 [30.2–89.4] %
NSTEMI, 1 h after 180 mg ticagrelor LD
  Platelet reactivity (VASP): 40.8 [23.7–69.2] %
NSTEMI, 3 h after 180 mg ticagrelor LD
  Platelet reactivity (VASP): 32.2 [14.7–38.7] %
NSTEMI, 4 h after 180 mg ticagrelor LD
  Platelet reactivity (VASP): 21.1 [17.5–43.1] %
NSTEMI
  time to achieve platelet inhibition below the cut-off value for HPR (VASP): 1.0 [0.5–2.0] h
STEMI, 0.5 h after 180 mg ticagrelor LD
  Platelet reactivity (VASP): 83.1 [74.5–87.8] %
STEMI, 1 h after 180 mg ticagrelor LD
  Platelet reactivity (VASP): 80.7 [40.4–90.5] %
STEMI, 3 h after 180 mg ticagrelor LD
  Platelet reactivity (VASP): 45.0 [26.4–80.9] %
STEMI, 4 h after 180 mg ticagrelor LD
  Platelet reactivity (VASP): 36.5 [22.2–69.7] %
STEMI
  time to achieve platelet inhibition below the cut-off value for HPR (VASP): 2.5 [1.0–6.0] h
